Test results: patent publication US11000033B2, “Ketone or oxime compound, and herbicide” (NISSAN CHEMICAL CORPORATION, priority 2014, dated 2021)

Legend:
Assay type in all cases: in vivo
[1] = system: Echinochloa oryzacola Vasing.; test: Test Example 1: herbicidal activity, application before weed generation in submerged conditions (symbol A); conditions: application herbicide amount 320 g/ha
In short: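 Mixed weed seeds sown in alluvial soil under 4 cm of water, with rice seedlings at the 2.5-leaf stage added. Same-day treatment: emulsion diluted to a set herbicide amount onto the water. Three weeks at 25–30 °C, then graded on a six-step scale.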

transplanted rice plant = test: Test Example 1: effect on crop, application before weed generation in submerged conditions (symbol a); conditions: application herbicide amount 320 g/ha
In short: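 Rice at 2.5 leaf stage transplanted into submerged soil (4 cm depth) sown with three weed species; herbicide applied before weed emergence.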

Scirpus juncoides = test: Test Example 2: herbicidal activity, application during weed generation in submerged conditions (symbol B); conditions: Table 23; application herbicide amount 320 g/ha; grade 0-5 by criteria of Test Example 1
In short: (§1)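 Alluvial soil in pots was flooded to a 4 cm water depth and sown with a mix of the three weed species, then grown in a greenhouse at 25° C. to 30° C. At the one- to two-leaf stage, an emulsifiable formulation diluted in water to a set dose was applied to the water surface. Effects were scored visually 3 weeks later.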

Monochoria vaginalis = test: Test Example 2: herbicidal activity, application during weed generation in submerged conditions (symbol C); conditions: Table 23; application herbicide amount 320 g/ha; grade 0-5 by criteria of Test Example 1
In short: as §1

Cyperus difformis = test: Test Example 3: herbicidal effect by foliage application, Wagner pot (symbol E); conditions: application herbicide amount 320 g/ha
In short: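 Weeds and rice were sown in alluvial soil under 0.1–0.5 cm of standing water and grown for 14 days in a 25–30 °C greenhouse. An emulsion of the compound, diluted in water to a set dose, was sprayed evenly onto the foliage. Effect was scored against fixed criteria 3 weeks after treatment.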

[2] = system: Echinochloa crus-galli var. crus-galli; test: Test Example 4: herbicidal effect by soil treatment (symbol H); conditions: application herbicide amount 320 g/ha
In short: (§2)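 Seeds were sown in sterilized diluvial soil, covered with about 1.5 cm of soil, and the soil surface was sprayed with a water-diluted emulsion of the compound at a predetermined rate. Plants grew in a greenhouse at 25° C. to 30° C.; effects were scored visually 3 weeks after application.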

Abutilon theophrasti = test: Test Example 4: herbicidal effect by soil treatment (symbol M); conditions: application herbicide amount 320 g/ha
In short: as §2

Chenopodium album = test: Test Example 4: herbicidal effect by soil treatment (symbol O); conditions: application herbicide amount 320 g/ha
In short: as §2

Veronica persica = test: Test Example 4: herbicidal effect by soil treatment (symbol R); conditions: application herbicide amount 320 g/ha
In short: as §2

Setaria viridis = test: Test Example 5: herbicidal effect by foliage application, plastic box (symbol G); conditions: 320 g/ha, 3 weeks after application
In short: (§3)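 Post-emergence spray; diluvial soil (sterilized), ~1.5 cm seed cover; greenhouse 25–30° C; 14-day-old plants; water-diluted emulsion at predetermined dose; visual score at 3 wk post-treatment.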

Amaranthus retroflexus = test: Test Example 5: herbicidal effect by foliage application, plastic box (symbol N); conditions: 320 g/ha, 3 weeks after application
In short: as §3

corn = test: Test Example 5: effect on crop by foliage application, plastic box (symbol c); conditions: 320 g/ha, 3 weeks after application
In short: (§4)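 Seeds were sown in spots in sterilized diluvial soil held in a plastic box 21 cm × 13 cm × 7 cm deep, covered with about 1.5 cm of soil, and grown in a greenhouse at 25° C. to 30° C.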

soybean = test: Test Example 5: effect on crop by foliage application, plastic box (symbol d); conditions: 320 g/ha, 3 weeks after application
In short: as §4

| SMILES | Herbicidal effect grade, A: Echinochloa oryzacola Vasing. [1] | Effect grade on crop, a: transplanted rice plant (transplanted rice plant) | Herbicidal effect grade, B: Scirpus juncoides (Scirpus juncoides) | Herbicidal effect grade, C: Monochoria vaginalis (Monochoria vaginalis) | herbicidal effect on E, grade 0-5 (Cyperus difformis) | Herbicidal effect grade, H: Echinochloa crus-galli var. crus-galli [2] | Herbicidal effect grade, M: Abutilon theophrasti (Abutilon theophrasti) | Herbicidal effect grade, O: Chenopodium album (Chenopodium album) | Herbicidal effect grade, R: Veronica persica (Veronica persica) | G: Setaria viridis, herbicidal effect (criteria of Test Example 1) (Setaria viridis) | N: Amaranthus retroflexus, herbicidal effect (criteria of Test Example 1) (Amaranthus retroflexus) | c: corn, effect on crop (criteria of Test Example 1) (corn) | d: soybean, effect on crop (criteria of Test Example 1) (soybean) |
| --- | --- | --- | --- | --- | --- | --- | --- | --- | --- | --- | --- | --- | --- |
| CON=C(C)CC1CC(O)=C(c2c(F)cc(Br)cc2OC)C1=O (stereo not drawn) [6-096] | 1 (Herbicidal ratio of 5% or higher and lower than 20%) | 5 (Herbicidal ratio of 90% or more (almost completely withered)) | 0 (Herbicidal ratio of 5% or lower (almost no effect)) | 0 (Herbicidal ratio of 5% or lower (almost no effect)) | 5 (Herbicidal ratio of 90% or more (almost completely withered)) | 4 (Herbicidal ratio of 70% or higher and lower than 90%) | 0 (Herbicidal ratio of 5% or lower (almost no effect)) | 0 (Herbicidal ratio of 5% or lower (almost no effect)) | 0 (Herbicidal ratio of 5% or lower (almost no effect)) | – | – | – | – |
| CON=C(C)CC1CC(OC(=O)N2CCCC2)=C(c2c(C)cc(C)cc2OC)C1=O (stereo not drawn) [6-110] | 5 (Herbicidal ratio of 90% or more (almost completely withered)) | 5 (Herbicidal ratio of 90% or more (almost completely withered)) | 1 (Herbicidal ratio of 5% or higher and lower than 20%) | 0 (Herbicidal ratio of 5% or lower (almost no effect)) | – | 5 (Herbicidal ratio of 90% or more (almost completely withered)) | 0 (Herbicidal ratio of 5% or lower (almost no effect)) | 0 (Herbicidal ratio of 5% or lower (almost no effect)) | 0 (Herbicidal ratio of 5% or lower (almost no effect)) | 5 (Herbicidal ratio of 90% or more (almost completely withered)) | 0 (Herbicidal ratio of 5% or lower (almost no effect)) | 5 (Herbicidal ratio of 90% or more (almost completely withered)) | 2 (Herbicidal ratio of 20% or higher and lower than 40%) |
| CON=C(C)CC1CC(O)=C(c2c(C)cc(-c3ccsc3)cc2C)C1=O (stereo not drawn) [6-106] | 5 (Herbicidal ratio of 90% or more (almost completely withered)) | 5 (Herbicidal ratio of 90% or more (almost completely withered)) | 5 (Herbicidal ratio of 90% or more (almost completely withered)) | 4 (Herbicidal ratio of 70% or higher and lower than 90%) | – | 5 (Herbicidal ratio of 90% or more (almost completely withered)) | 0 (Herbicidal ratio of 5% or lower (almost no effect)) | 0 (Herbicidal ratio of 5% or lower (almost no effect)) | 0 (Herbicidal ratio of 5% or lower (almost no effect)) | 5 (Herbicidal ratio of 90% or more (almost completely withered)) | 0 (Herbicidal ratio of 5% or lower (almost no effect)) | 5 (Herbicidal ratio of 90% or more (almost completely withered)) | 1 (Herbicidal ratio of 5% or higher and lower than 20%) |
| CON=C(C)CC1CC(O)=C(c2c(F)cc(C)cc2OC)C1=O (stereo not drawn) [6-108] | 4 (Herbicidal ratio of 70% or higher and lower than 90%) | 5 (Herbicidal ratio of 90% or more (almost completely withered)) | 1 (Herbicidal ratio of 5% or higher and lower than 20%) | 2 (Herbicidal ratio of 20% or higher and lower than 40%) | – | 5 (Herbicidal ratio of 90% or more (almost completely withered)) | 5 (Herbicidal ratio of 90% or more (almost completely withered)) | 5 (Herbicidal ratio of 90% or more (almost completely withered)) | 3 (Herbicidal ratio of 40% or higher and lower than 70%) | 5 (Herbicidal ratio of 90% or more (almost completely withered)) | 5 (Herbicidal ratio of 90% or more (almost completely withered)) | 5 (Herbicidal ratio of 90% or more (almost completely withered)) | 3 (Herbicidal ratio of 40% or higher and lower than 70%) |
| CON=C(C)CC1CC(OC(=O)N2CCCCC2)=C(c2c(C)cc(C)cc2OC)C1=O (stereo not drawn) [6-111] | 5 (Herbicidal ratio of 90% or more (almost completely withered)) | 5 (Herbicidal ratio of 90% or more (almost completely withered)) | 3 (Herbicidal ratio of 40% or higher and lower than 70%) | 4 (Herbicidal ratio of 70% or higher and lower than 90%) | – | 4 (Herbicidal ratio of 70% or higher and lower than 90%) | 0 (Herbicidal ratio of 5% or lower (almost no effect)) | 0 (Herbicidal ratio of 5% or lower (almost no effect)) | 0 (Herbicidal ratio of 5% or lower (almost no effect)) | 5 (Herbicidal ratio of 90% or more (almost completely withered)) | 2 (Herbicidal ratio of 20% or higher and lower than 40%) | 5 (Herbicidal ratio of 90% or more (almost completely withered)) | 1 (Herbicidal ratio of 5% or higher and lower than 20%) |
| CON=C(C)CC1CC(O)=C(c2c(C)cc(-c3cc(F)c(F)c(F)c3)cc2C)C1=O (stereo not drawn) [6-104] | 5 (Herbicidal ratio of 90% or more (almost completely withered)) | 5 (Herbicidal ratio of 90% or more (almost completely withered)) | 5 (Herbicidal ratio of 90% or more (almost completely withered)) | 5 (Herbicidal ratio of 90% or more (almost completely withered)) | – | 5 (Herbicidal ratio of 90% or more (almost completely withered)) | 5 (Herbicidal ratio of 90% or more (almost completely withered)) | 4 (Herbicidal ratio of 70% or higher and lower than 90%) | 4 (Herbicidal ratio of 70% or higher and lower than 90%) | 5 (Herbicidal ratio of 90% or more (almost completely withered)) | 5 (Herbicidal ratio of 90% or more (almost completely withered)) | 5 (Herbicidal ratio of 90% or more (almost completely withered)) | 3 (Herbicidal ratio of 40% or higher and lower than 70%) |
| CON=C(C)CC1CC(OC(=O)N(C)C)=C(c2c(C)cc(C)cc2OC)C1=O (stereo not drawn) [6-109] | 5 (Herbicidal ratio of 90% or more (almost completely withered)) | 5 (Herbicidal ratio of 90% or more (almost completely withered)) | 2 (Herbicidal ratio of 20% or higher and lower than 40%) | 2 (Herbicidal ratio of 20% or higher and lower than 40%) | – | 5 (Herbicidal ratio of 90% or more (almost completely withered)) | 0 (Herbicidal ratio of 5% or lower (almost no effect)) | 0 (Herbicidal ratio of 5% or lower (almost no effect)) | 0 (Herbicidal ratio of 5% or lower (almost no effect)) | 5 (Herbicidal ratio of 90% or more (almost completely withered)) | 4 (Herbicidal ratio of 70% or higher and lower than 90%) | 5 (Herbicidal ratio of 90% or more (almost completely withered)) | 2 (Herbicidal ratio of 20% or higher and lower than 40%) |
